# Patent US20080045584A1, “Use of Docetaxel for Treating Hepatocellular Carcinoma” (priority 1999, published 2008)
# Key:
# [1] = test system: Hep G2 cells; test: Flow cytometric analysis of DNA content (cell cycle, sub-G0/G1); format: cell-based, human; settings: for apoptotic percentages (sub-G0/G1 cells): 0.001 μM
# Experimental: (§1) Lysing buffer (0.5% Triton X-100, 0.2 μg/ml Na2EDTA.2H2O, and 1% bovine serum albumin in PBS) was added to the cell pellets which were then left on ice for 15 minutes. 100% methanol pre-cooled to −20° C. was then added to the mixture, which was then centrifuged at 300×g for 5 minutes. The supernatant was discarded and the cell pellet was washed with PBS. The washed pellet was stained with a DNA staining solution (50 μg/ml propidium iodide, and 5 kunitz/ml of RNase A) for 30 minutes at 4° C. in the dark. The DNA content of each cell was measured using a Becton Dickinson FACS Calibur flow cytometer as set out below.
# (§2) Cells (10000) were analyzed on a Becton Dickinson FACS Calibur flow cytometer using an argon-ion laser (15 mWatt) with incident beam at 488 nm. For PI exclusion assay, red fluorescence was collected through a 585 nm filter and the cell debris signals were removed by FSC-SSC gating. Data were acquired and analyzed using FACS/CELL Quest software on a Power Macintosh 7600/120 computer. Apoptotic cells and cells at specific cycle phases were determined by ModFit LT software.
# (§3) Table 1 gives figures for cell membrane permeability of the hepatoma cells, following treatment with paclitaxel and docetaxel. Table 2 details the percentage of apoptotic (sub-G0/G1) cells found after paclitaxel and docetaxel treatment.
# [2] = test system: HA22T/VGH cells; test: as above; format: cell-based, human
# Experimental: as §1, §2, §3
# [3] = test system: Hepa 1-6 cells; test: Propidium iodide (PI) exclusion assay, flow cytometry; format: cell-based, murine
# Experimental: Cells were grown on 5-cm^2 flasks (CORNING) and treated with paclitaxel and docetaxel as set out above. Propidium iodide (10 μg/ml) was then added for 15 minutes incubation at 37° C. Then, medium was collected prior to harvest of the adherent cells. Both suspended and attached cells were collected and resuspended with 500 μl PBS for flow cytometry analysis as set out below. Debris signals were removed by FSC-SSC gating.
# as §2
# Data are mean±standard error of mean from duplicated sample of at least three independent experiments. Cells were treated with drugs for 24-72 hours, and membrane permeability was measured by flowcytometric analysis of propidium exclusion in viable hepatoma cells. Data are the percentage of cells with intact cell membrane as compared to control
# [4] = test system: Hepa 1-6 cells; test: Flow cytometric analysis of DNA content (cell cycle, sub-G0/G1); format: cell-based, murine
# Experimental: as §1, §2, §3
smiles,measurement,setting,value
CC(=O)O[C@@]12CO[C@@H]1C[C@H](O)[C@@]1(C)C(=O)[C@H](O)C3=C(C)[C@@H](OC(=O)[C@H](O)[C@@H](NC(=O)OC(C)(C)C)c4ccccc4)C[C@@](O)([C@@H](OC(=O)c4ccccc4)[C@H]21)C3(C)C [Docetaxel],apoptotic percentages (sub-G0/G1 cells),"[1]; Hep G2, 24 hours",31.02%
same,% of apoptotic (sub-G0/G1) cells,"[1]; Hep G2, 24 hrs, 0.01 mM (text: μM)",45.24%
same,% of apoptotic (sub-G0/G1) cells,"[1]; Hep G2, 24 hrs, 0.1 mM (text: μM)",38.77%
same,% of apoptotic (sub-G0/G1) cells,"[1]; Hep G2, 24 hrs, 1 mM (text: μM)",28.33%
same,apoptotic percentages (sub-G0/G1 cells),"[1]; Hep G2, 72 hours",21.92%
same,% of apoptotic (sub-G0/G1) cells,"[1]; Hep G2, 72 hrs, 0.01 mM (text: μM)",42.45%
same,% of apoptotic (sub-G0/G1) cells,"[1]; Hep G2, 72 hrs, 0.1 mM (text: μM)",42.44%
same,% of apoptotic (sub-G0/G1) cells,"[1]; Hep G2, 72 hrs, 1 mM (text: μM)",56.66%
same,% of apoptotic (sub-G0/G1) cells,"[2]; 24 hrs, 0.01 mM (text: μM)",41.75%
same,% of apoptotic (sub-G0/G1) cells,"[2]; 24 hrs, 0.1 mM (text: μM)",18.61%
same,% of apoptotic (sub-G0/G1) cells,"[2]; 24 hrs, 1 mM (text: μM)",22.94%
same,% of apoptotic (sub-G0/G1) cells,"[2]; 72 hrs, 0.01 mM (text: μM)",56.64%
same,% of apoptotic (sub-G0/G1) cells,"[2]; 72 hrs, 0.1 mM (table head; text: μM)",58.61%
same,% of apoptotic (sub-G0/G1) cells,"[2]; 72 hrs, 1 mM (table head; text: μM)",60.98%
same,percentage of cells with intact cell membrane as compared to control,"[3]; Hepa 1-6, 24 hrs, 0.01 μM",94.45 ± 1.9%
same,percentage of cells with intact cell membrane as compared to control,"[3]; Hepa 1-6, 24 hrs, 0.1 μM",83.35 ± 7.2%
same,percentage of cells with intact cell membrane as compared to control,"[3]; Hepa 1-6, 24 hrs, 1 μM",81.88 ± 8.7%
same,percentage of cells with intact cell membrane as compared to control,"[3]; Hepa 1-6, 72 hrs, 0.01 μM",77.18 ± 1.4%
same,percentage of cells with intact cell membrane as compared to control,"[3]; Hepa 1-6, 72 hrs, 0.1 μM",43.94 ± 3.4%
same,percentage of cells with intact cell membrane as compared to control,"[3]; Hepa 1-6, 72 hrs, 1 μM",38.90 ± 4.2%
same,% of apoptotic (sub-G0/G1) cells,"[4]; Hepa 1-6, 24 hrs, 0.01 mM (text: μM)",52.81%
same,% of apoptotic (sub-G0/G1) cells,"[4]; Hepa 1-6, 24 hrs, 0.1 mM (text: μM)",50.76%
same,% of apoptotic (sub-G0/G1) cells,"[4]; Hepa 1-6, 24 hrs, 1 mM (text: μM)",53.8%
same,% of apoptotic (sub-G0/G1) cells,"[4]; Hepa 1-6, 72 hrs, 0.01 mM (text: μM)",31.25%
same,% of apoptotic (sub-G0/G1) cells,"[4]; Hepa 1-6, 72 hrs, 0.1 mM (text: μM)",53.95%
same,% of apoptotic (sub-G0/G1) cells,"[4]; Hepa 1-6, 72 hrs, 1 mM (text: μM)",62.49%
